# What was measured:
# Assay in all cases: relative viability (nuclei count vs DMSO), 5 days (fraction); higher = more cells survive
# [1] = compound: O=c1[nH]cc(F)c(=O)[nH]1 [5-Fluorouracil] + NC(=O)Nc1cc(-c2cccc(F)c2)sc1C(=O)N[C@H]1CCCNC1 [AZD7762] (partner 0.2 µM)
# Method in brief: (§1)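 Each reported value is a median over duplicate plates. It expresses relative viability: treated-well nuclei count divided by vehicle-well nuclei count. Lung cancer cell lines in 1536-well plates were dosed by pin tool a day after seeding, alone with one drug or with a fixed anchor-drug dose plus five library-drug doses (not always all listed) in √10 steps, and nuclei were counted after 5 days.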
# [2] = compound: O=c1[nH]cc(F)c(=O)[nH]1 [5-Fluorouracil] + O=C(c1cc(Cc2n[nH]c(=O)c3ccccc23)ccc1F)N1CCN(C(=O)C2CC2)CC1 [Olaparib] (partner 8 µM)
# Method in brief: as §1
# [3] = compound: CC1=C(CC(=O)O)c2cc(F)ccc2/C1=C\c1ccc([S+](C)[O-])cc1 [Sulindac] + CC(=O)Nc1cccc(-n2c(=O)n(C3CC3)c(=O)c3c(Nc4ccc(I)cc4F)n(C)c(=O)c(C)c32)c1 [Trametinib] (partner 0.02 µM)
# Method in brief: as §1
# [4] = compound: CN[C@@H]1C[C@H]2O[C@@](C)([C@@H]1OC)n1c3ccccc3c3c4c(c5c6ccccc6n2c5c31)C(=O)NC4 [Staurosporine] + CC(=O)Nc1cccc(-n2c(=O)n(C3CC3)c(=O)c3c(Nc4ccc(I)cc4F)n(C)c(=O)c(C)c32)c1 [Trametinib] (partner 0.02 µM)
# Method in brief: as §1
Cell Line,relative viability ([1]; first compound 0.02 µM),relative viability ([1]; first compound 0.2 µM),relative viability ([1]; first compound 0.6325 µM),relative viability ([1]; first compound 2 µM),relative viability ([2]; first compound 0.02 µM),relative viability ([2]; first compound 0.6325 µM),relative viability ([2]; first compound 2 µM),relative viability ([3]; first compound 0.08 µM),relative viability ([3]; first compound 0.253 µM),relative viability ([3]; first compound 0.8 µM),relative viability ([3]; first compound 2.53 µM),relative viability ([3]; first compound 8 µM),relative viability ([4]; first compound 0.005 µM),relative viability ([4]; first compound 0.05 µM),relative viability ([4]; first compound 0.1581 µM),relative viability ([4]; first compound 0.5 µM),relative viability ([2]; first compound 0.2 µM),relative viability ([4]; first compound 0.01581 µM)
201T,0.51,0.264,0.197,0.217,0.82,0.252,0.249,0.763,0.732,0.717,0.695,0.712,0.769,0.703,0.58,0.485,,
A549,,,,,0.298,0.202,0.0825,,,,,,,,,,0.501,
A-427,0.676,0.805,0.308,0.253,0.68,0.674,0.385,0.685,0.709,0.732,0.673,0.848,0.521,0.247,0.121,0.117,0.521,0.439
ABC-1,0.754,0.933,0.722,0.634,0.782,1,0.51,,,,,,,,,,0.716,
BEN,0.791,0.804,0.606,0.679,1.01,0.907,0.913,0.975,1.03,0.934,1.02,1.13,1.21,0.827,0.729,0.439,0.851,1.2
CAL-12T,0.685,0.588,0.421,0.421,0.701,0.638,0.365,0.285,0.357,0.343,0.312,0.361,0.19,0.0965,0.126,0.083,0.634,0.145
COR-L23,,,,,0.36,0.273,0.18,0.653,0.671,0.357,0.548,0.725,0.325,0.0689,0.0665,0.0391,0.312,0.148
COR-L 105,,,,,0.713,0.58,0.512,0.374,0.472,0.445,0.45,0.449,0.427,0.274,0.234,0.237,0.792,0.357
Calu-6,,,,,0.535,0.519,0.347,,,,,,,,,,0.557,
ChaGo-K-1,0.883,0.917,0.609,0.383,0.36,0.321,0.25,1.05,0.963,0.817,0.914,0.903,0.911,0.796,0.579,0.455,0.393,
EBC-1,,,,,0.769,0.759,0.44,,,,,,,,,,0.772,
EKVX,0.322,0.157,0.145,0.157,0.667,,0.169,0.299,0.34,0.292,0.335,0.333,0.224,0.143,0.169,0.12,0.277,0.184
EMC-BAC-2,1.14,1.22,1.11,1.01,0.479,0.45,0.469,1.03,0.917,0.794,0.794,0.994,0.42,0.219,0.253,,0.53,0.225
EPLC-272H,0.243,0.122,0.109,0.102,0.737,0.32,0.21,0.195,,0.266,0.245,0.279,0.291,0.123,0.067,0.0425,0.67,0.15
H3255,0.98,0.949,0.696,0.567,0.573,0.578,0.556,0.635,0.661,0.509,0.699,0.656,0.48,0.236,0.197,0.141,0.578,0.321
HARA,0.411,0.32,0.4,0.211,0.775,0.623,0.845,0.516,0.926,0.777,0.715,0.735,0.365,0.2,0.132,0.118,1.01,0.401
HCC-15,1.28,1.2,0.448,0.39,0.741,0.521,0.33,0.415,0.395,0.375,0.347,0.283,0.305,0.192,0.192,0.165,0.707,
HCC-44,1.01,0.925,0.733,0.466,1.03,0.979,0.651,1.11,1.13,0.969,1.26,1.02,1.04,0.444,,0.322,1.02,
HCC-78,0.562,0.503,0.239,0.306,0.755,0.331,0.28,0.844,0.865,0.647,0.81,0.824,0.806,0.484,0.407,0.428,0.599,0.676
HCC-366,0.354,0.308,0.119,0.0755,0.387,0.199,0.0788,0.359,0.384,,0.357,0.396,0.242,0.0839,0.0291,0.0289,0.397,
HCC-827,0.164,0.178,0.166,0.147,0.336,0.552,0.304,0.525,0.571,0.526,0.489,0.506,0.625,0.357,0.313,0.231,0.647,0.641

# Source: the supplement of paper PMC10307832
